Assay results from patent US20230026232A1, “AHR INHIBITORS AND USES THEREOF” (Ikena Oncology, Inc., priority 2019, published 2023).
≈ marks a conversion by molar mass, not a printed value. Entries after “also recorded” stand apart in the source; their conditions may differ.

Tests used:
[1] = Nonclinical safety studies incl. 28-day GLP study in monkeys; assay type: in vivo
From the text: The nonclinical safety of Compound A has been evaluated in a series of pharmacological, single-dose and repeated-dose toxicological studies in rodent and non-rodent species including 28-day Good Laboratory Practice (GLP) studies in rat and monkeys. […] All changes were resolved or resolving after 2 weeks of dosing cessation, except for the testicular changes in rats. The nonclinical safety assessment from these studies supports clinical evaluation of Compound A in humans. The initial planned dose of Compound A for this study is 200 mg once daily (QD), based on evaluation of the Compound A nonclinical safety data.
During dose escalation, a minimum of 3 patients are required at each dose. Depending on accrual rate and occurrence of DLTs, 3, 4, 5, or 6 patients may be enrolled at each new dose until the last of those patients completes the 21-day DLT assessment period. Based on the mTPI-2 design, the number of patients who are enrolled at a dose but are not yet fully evaluable for DLT assessment may not exceed the number of remaining patients who are at risk of developing a DLT before the dose would be considered unacceptably toxic. In general, 3 to 14 patients can be enrolled at a given dose level. Administration of Compound A to the first 2 patients in each new dose cohort is staggered by a minimum of 15 hours.

[2] = test system: human T cell; test: Human T cell assays: pro-inflammatory cytokines; assay type: cell-based
From the text: Compound A is a selective AHR antagonist being developed as an orally administered therapeutic. […] Compound A inhibits CYP1A1 and interleukin (IL)-22 gene expression and leads to an increase in pro-inflammatory cytokines, such as IL-2 and IL-9.

[3] = Phase 1 dose-escalation study: safety; assay type: in vivo; conditions: 200 mg, 400 mg, 800 mg, and 1200 mg QD, human patients, fed state
From the text: This is a first-in-human (FIH), single-arm, dose-escalation and expansion study to evaluate the safety, tolerability, PK, pharmacodynamics, and preliminary antitumor activity of Compound A administered orally in patients with advanced solid tumors and urothelial carcinoma. Subject enrollment and continuous safety assessment will be guided by a mTPI-2 design (Guo, 2017). Decisions for dose escalation and de-escalation will be made by a Safety Review Committee (SRC) comprised of the enrolling study Investigators and the Sponsor. To assess evidence of preliminary antitumor activity, a Simon 2-stage design (Simon, 1989) is used.
Toxicity is evaluated according to National Cancer Institute Common Terminology Criteria for Adverse Events (AEs) (NCI-CTCAE) v5.0. DLT events are defined herein. AEs will be assessed, and laboratory values (chemistry, hematology, coagulation, thyroid function and urinalysis as specified herein), vital signs, and 12-lead triplicate electrocardiograms (ECGs) are obtained to evaluate the safety and tolerability of Compound A.
A modified Toxicity Probability Interval (mTPI-2) design (Guo, 2017) with a target DLT rate of approximately 30% is applied for dose escalation and confirmation to determine the Compound A RP2D. Several dose levels of Compound A, planned from 200 mg QD to 1600 mg daily, are explored. […]

[4] = Solubility of bulk API in biorelevant media by HPLC; assay type: physicochemical; conditions: thermodynamic from solid, up to 24 hours
Protocol: Solubility of bulk APIs was conducted in various biorelevant media. Small amounts of API were suspended in media and continuously agitated at room temperature for a period up to 24 hours. Samples were centrifuged to pellet out undissolved solids and the resulting supernatant was sampled, diluted, and analyzed by HPLC utilizing the short-assay method sued for dissolution sample analysis. Both forms show poor gastric solubility, with the maleate salt displaying an order of magnitude larger solubility in intestinal media.

CC(C)c1cnn2c(N[C@@H]3CCc4[nH]c5ccccc5c4C3)nc(-c3cncc(F)c3)nc12 [Compound A, (R)—N-(2-(5-fluoropyridin-3-yl)-8-isopropylpyrazolo[1,5-a][1,3,5]triazin-4-yl)-2,3,4,9-tetrahydro-1H-carbazol-3-amine]
noteworthy findings in nonclinical safety studies ([1]; monkey): decreased thymus weights and cortical lymphocytes
AUC ([1]; monkey, primates, plasma, read-out: AUC where QTc increases are noted): 188 µg·h/mL
Cmax ([1]; monkey, primates, plasma, read-out: Cmax where QTc increases are noted): 11200 ng/mL
QTc prolongation ([1]; monkeys): up to 11%
pro-inflammatory cytokines, such as IL-2 and IL-9 [2]: increase
serious adverse events (SAEs) [3]: without any drug-related serious adverse events; also recorded: no serious adverse events
solubility ([4]; simulated gastric fluid, 0.1N HCl, room temperature): < 0.5 µg/mL
solubility ([4]; FaSSIF, pH 6.8, room temperature): 1.4 µg/mL (≈ 3.17 µM)
